# Data reported in ChEMBL document CHEMBL3826902, “Synthesis and cytotoxic activities of semisynthetic zearalenone analogues” (Bioorg Med Chem Lett, 2016).
# pIC50: −log10 of the molar value. The source made the active and inactive calls. No cut-off for these calls is given here.
# Key:
# KB [1] = test: Cytotoxicity against human KB cells assessed as reduction in cell viability by resazurin microplate assay; assay type: functional, cell-based; details: for pIC50: Homo sapiens, KB, read-out: IC50; for IC50: kb
# MCF7 [2] = test: Cytotoxicity against human MCF7 cells assessed as reduction in cell viability at >50 ug/ml by resazurin microplate assay; assay type: functional, cell-based
# MCF7 [3] = test: Cytotoxicity against human MCF7 cells assessed as reduction in cell viability by resazurin microplate assay; assay type: functional, cell-based; details: for IC50: mcf7; for pIC50: Homo sapiens, MCF7, read-out: IC50
# Vero [4] = test: Cytotoxicity against African green monkey Vero cells assessed as reduction in cell viability by green fluorescent protein-based assay; parameters: species or system Chlorocebus sabaeus; details: for pIC50: Chlorocebus sabaeus, Vero, read-out: IC50; for IC50: vero
# KB [5] = test: Cytotoxicity against human KB cells assessed as reduction in cell viability at >50 ug/ml by resazurin microplate assay; assay type: functional, cell-based
# Vero [6] = test: Cytotoxicity against African green monkey Vero cells assessed as reduction in cell viability at >50 ug/ml by green fluorescent protein-based assay; details: Chlorocebus sabaeus
# [7] = Cytotoxicity against human HL60 cells assessed as reduction in cell viability after 24 hrs by MTT assay; assay type: functional, cell-based; details: HL-60, 24 h
Structure (SMILES),pIC50 (KB [1]),Activity (MCF7 [2]),IC50 (MCF7 [3]),pIC50 (Vero [4]),pIC50 (MCF7 [3]),IC50 (KB [1]),Activity (KB [5]),Activity (Vero [6]),IC50 (Vero [4]),pIC50 [7]
CCC(=O)Oc1cc(O)c2c(c1)/C=C/CCC[C@@H](O)CCC[C@H](C)OC2=O,4.07,inactive,Not Active,3.89,,,,,,
CCCOc1cc(O)c2c(c1)/C=C/CCC[C@@H](O)CCC[C@H](C)OC2=O,4.45,,,4.58,4.36,,,,,
C[C@H]1CCC[C@@H](O)CCCCCc2cc(O)cc(O)c2C(=O)O1 [TALERANOL],,inactive,Not Active,4.65,,Not Active,inactive,,,
CCCCCCCCOc1cc(O)c2c(c1)/C=C/CCC[C@H](O)CCC[C@H](C)OC2=O,4.09,,,4.13,4.03,,,,,
COc1cccc2c1C(=O)c1c(O)c3c(c(O)c1C2=O)C[C@@](O)(C(=O)CO)C[C@@H]3O[C@H]1C[C@H](N)[C@H](O)[C@H](C)O1 [DOXORUBICIN],5.97,,,,,,,,,
COc1cc(OC)c2c(c1Cl)/C=C/CCCC(=O)CCC[C@H](C)OC2=O,,inactive,Not Active,,,Not Active,inactive,Non-toxic,Not Active,
COc1cc(O)c2c(c1)CCCCC[C@H](O)CCC[C@H](C)OC2=O,,inactive,Not Active,3.83,,Not Active,inactive,,,
C[C@H]1CCCC(=O)CCC/C=C/c2c(Cl)c(O)cc(O)c2C(=O)O1,4.05,inactive,Not Active,3.85,,,,,,
CCC(=O)Oc1cc2c(c(OC(=O)CC)c1)C(=O)O[C@@H](C)CCCC(=O)CCC/C=C/2,,inactive,Not Active,,,Not Active,inactive,Non-toxic,Not Active,
C[C@H]1CCCC(=O)CCC/C=C/c2cc(O)cc(O)c2C(=O)O1 [ZEARALENONE],4.33,,,4.39,3.98,,,,,3.86
COc1cc2c(c(OC)c1)C(=O)O[C@@H](C)CCC[C@H](O)CCCCC2,,inactive,Not Active,,,Not Active,inactive,Non-toxic,Not Active,
CCCOc1cc(O)c2c(c1)/C=C/CCC[C@H](O)CCC[C@H](C)OC2=O,4.08,,,4.27,4.09,,,,,
C[C@H]1CCC[C@H](O)CCCCCc2cc(O)cc(O)c2C(=O)O1 [ZERANOL],,inactive,Not Active,4.30,,Not Active,inactive,,,
COc1cc(O)c2c(c1)CCCCC[C@@H](O)CCC[C@H](C)OC2=O,,inactive,Not Active,,,Not Active,inactive,Non-toxic,Not Active,
CCC(=O)Oc1cc(O)c2c(c1)/C=C/CCCC(=O)CCC[C@H](C)OC2=O,4.28,inactive,Not Active,4.36,,,,,,
CC(=O)Oc1cc(O)c2c(c1)/C=C/CCC[C@@H](O)CCC[C@H](C)OC2=O,4.29,,,3.87,4.05,,,,,
COc1cc2c(c(OC)c1)C(=O)O[C@@H](C)CCCC(=O)CCCCC2,,inactive,Not Active,,,Not Active,inactive,Non-toxic,Not Active,
COc1cc2c(c(OC)c1)C(=O)O[C@@H](C)CCC[C@H](O)CCC/C=C/2,,inactive,Not Active,,,Not Active,inactive,Non-toxic,Not Active,
Cc1c2ccncc2c(C)c2c1[nH]c1ccccc12 [ELLIPTECINE],5.08,,,5.37,,,,,,

Structure (SMILES),pIC50 (KB [1]),Activity (MCF7 [2]),IC50 (MCF7 [3]),pIC50 (Vero [4]),pIC50 (MCF7 [3]),IC50 (KB [1]),Activity (KB [5]),Activity (Vero [6]),IC50 (Vero [4]),pIC50 [7]
CCOc1cc(O)c2c(c1)/C=C/CCC[C@@H](O)CCC[C@H](C)OC2=O,4.17,,,,4.21,,,Non-toxic,Not Active,
COc1cc(O)c2c(c1)CCCCCC(=O)CCC[C@H](C)OC2=O,,inactive,Not Active,,,Not Active,inactive,Non-toxic,Not Active,
COc1cc(O)c2c(c1)/C=C/CCC[C@@H](O)CCC[C@H](C)OC2=O,3.98,,,4.27,4.03,,,,,
CCC(=O)Oc1cc(O)c2c(c1)/C=C/CCC[C@H](O)CCC[C@H](C)OC2=O,4.48,inactive,Not Active,4.46,,,,,,
C[C@H]1CCCC(=O)CCCCCc2cc(O)cc(O)c2C(=O)O1 [ZEARALANONE],,inactive,Not Active,3.82,,Not Active,inactive,,,
CC(=O)Oc1cc(O)c2c(c1)/C=C/CCCC(=O)CCC[C@H](C)OC2=O,4.28,inactive,Not Active,3.87,,,,,,
COc1cc(O)c2c(c1)/C=C/CCC[C@H](O)CCC[C@H](C)OC2=O,4.25,inactive,Not Active,,,,,Non-toxic,Not Active,
COc1cc2c(c(OC)c1)C(=O)O[C@@H](C)CCC[C@@H](O)CCC/C=C/2,,inactive,Not Active,,,Not Active,inactive,Non-toxic,Not Active,
CCCCCCCCOc1cc(O)c2c(c1)/C=C/CCC[C@@H](O)CCC[C@H](C)OC2=O,4.39,,,4.62,4.12,,,,,
COc1cc(O)c2c(c1)/C=C/CCCC(=O)CCC[C@H](C)OC2=O,,inactive,Not Active,,,Not Active,inactive,Non-toxic,Not Active,
COc1cc2c(c(OC)c1)C(=O)O[C@@H](C)CCC[C@@H](O)CCCCC2,,inactive,Not Active,,,Not Active,inactive,Non-toxic,Not Active,
COc1cc(O)c2c(c1Cl)/C=C/CCCC(=O)CCC[C@H](C)OC2=O,3.96,inactive,Not Active,4.29,,,,,,
CC(=O)Oc1cc(O)c2c(c1)/C=C/CCC[C@H](O)CCC[C@H](C)OC2=O,4.31,inactive,Not Active,4.87,,,,,,
COc1cc2c(c(OC)c1)C(=O)O[C@@H](C)CCCC(=O)CCC/C=C/2,,inactive,Not Active,,,Not Active,inactive,Non-toxic,Not Active,
CC(=O)Oc1cc2c(c(OC(C)=O)c1)C(=O)O[C@@H](C)CCCC(=O)CCC/C=C/2,4.22,inactive,Not Active,4.32,,,,,,
C[C@H]1CCC[C@H](O)CCC/C=C/c2cc(O)cc(O)c2C(=O)O1,4.00,inactive,Not Active,4.22,,,,,,
CC/C(=C(\c1ccccc1)c1ccc(OCCN(C)C)cc1)c1ccccc1 [TAMOXIFEN],,,,,4.71,,,,,
C[C@H]1CCC[C@@H](O)CCC/C=C/c2cc(O)cc(O)c2C(=O)O1,,inactive,Not Active,4.60,,Not Active,inactive,,,
CCOc1cc(O)c2c(c1)/C=C/CCC[C@H](O)CCC[C@H](C)OC2=O,4.22,,,4.34,4.15,,,,,
